What was measured:
Assay in all cases: relative viability (nuclei count vs DMSO), 5 days (fraction); higher = more cells survive
[1] = compound: Nc1nc(Nc2ccc3c(c2)CC[C@@H](N2CCCC2)CC3)nn1-c1cc2c(nn1)-c1ccccc1CCC2 [Bemcentinib] + CS(=O)(=O)CCNCc1ccc(-c2ccc3ncnc(Nc4ccc(OCc5cccc(F)c5)c(Cl)c4)c3c2)o1 [Lapatinib] (partner 2 µM)
Method in brief: (§1)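 Medians of duplicate plates are given as relative viability. That measure is the nuclei count in treated wells divided by the count in vehicle wells. Counts were taken on 4× images of lung cancer cell lines in 1536-well plates, 5 days after pin-tool dosing the day after seeding with one drug alone or a fixed anchor-drug dose plus five library-drug doses (not always all listed) in √10 steps.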

[2] = compound: CC1=CC=C(C=C1)C(=O)CN2C3=C(CCCC3)SC2=N [Pifithrin_alpha] + Nc1nc2[nH]cc(CCc3ccc(C(=O)N[C@@H](CCC(=O)O)C(=O)O)cc3)c2c(=O)[nH]1 [Pemetrexed] (partner 0.2 µM)
Method in brief: as §1

[3] = compound: CNC(=O)c1ccccc1Sc1ccc2c(/C=C/c3ccccn3)n[nH]c2c1 [Axitinib] + N=C(N)NC(=N)NCCc1ccccc1 [Phenformin] (partner 250 µM)
Method in brief: as §1

[4] = compound: CC1=CC=C(C=C1)C(=O)CN2C3=C(CCCC3)SC2=N [Pifithrin_alpha] + O=C(CCCCCCC(=O)Nc1ccccc1)NO [Vorinostat] (partner 1 µM)
Method in brief: as §1

Work on NCI-H650 yielded a relative viability ([1]; first compound 0.04 µM) of 0.885, a relative viability ([1]; first compound 0.1265 µM) of 1.02 and a relative viability ([1]; first compound 0.4 µM) of 0.906. For the same cell line, the relative viability ([1]; first compound 1.265 µM) was 0.759, the relative viability ([1]; first compound 4 µM) was 0.775 and the relative viability ([2]; first compound 3.162 µM) was 0.938. The relative viability ([2]; first compound 10 µM) was 0.967, the relative viability ([2]; first compound 31.62 µM) was 0.831 and the relative viability ([2]; first compound 100 µM) was 0.789. The relative viability ([3]; first compound 0.005 µM) was 0.462, the relative viability ([3]; first compound 0.01581 µM) was 0.434 and the relative viability ([3]; first compound 0.05 µM) was 0.483. The relative viability ([3]; first compound 0.1581 µM) was 0.424, the relative viability ([3]; first compound 0.5 µM) was 0.471 and the relative viability ([4]; first compound 3.162 µM) was 0.439. It also gave a relative viability ([4]; first compound 10 µM) of 0.395, a relative viability ([4]; first compound 31.62 µM) of 0.305 and a relative viability ([4]; first compound 100 µM) of 0.399.

Reference: the supplement of paper PMC10307832
